Data from PubChem BioAssay (NCI).
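The compound was tested at five concentrations on cells cultured in 96-well plates, with a 48-hour exposure period. GI50: concentration for 50% inhibition of growth. Definition used: TGI = concentration required for complete inhibition of growth.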

Experiments:
Assay in all cases: NCI anticancer screen, dose series, 48 h
[1] = tested on: T-47D breast
[2] = tested on: HOP-62 NSCLC
[3] = tested on: NCI/ADR-RES ovarian
[4] = tested on: MDA-MB-231 breast
[5] = tested on: UO-31 renal
[6] = tested on: HL-60(TB) leukemia
[7] = tested on: HCT-15 colon
[8] = tested on: SK-OV-3 ovarian
[9] = tested on: UACC-62 melanoma
[10] = tested on: COLO 205 colon
[11] = tested on: HOP-92 NSCLC
[12] = tested on: HS 578T breast
[13] = tested on: CAKI-1 renal
[14] = tested on: ACHN renal
[15] = tested on: DU-145 prostate
[16] = tested on: EKVX NSCLC
[17] = tested on: OVCAR-5 ovarian
[18] = tested on: A549 NSCLC
[19] = tested on: SK-MEL-5 melanoma
[20] = tested on: CCRF-CEM leukemia
[21] = tested on: HCC-2998 colon
[22] = tested on: K-562 leukemia
[23] = tested on: A498 renal
[24] = tested on: SR leukemia
[25] = tested on: HT29 colon
[26] = tested on: SK-MEL-28 melanoma
[27] = tested on: RXF 393 renal
[28] = tested on: NCI-H23 lung
[29] = tested on: BT-549 breast
[30] = tested on: U251 CNS
[31] = tested on: UACC-257 melanoma
[32] = tested on: OVCAR-8 ovarian
[33] = tested on: IGROV1 ovarian
[34] = tested on: PC-3 prostate
[35] = tested on: RPMI-8226 leukemia
[36] = tested on: MOLT-4 leukemia
[37] = tested on: MCF7 breast
[38] = tested on: OVCAR-3 ovarian
[39] = tested on: TK-10 renal
[40] = tested on: OVCAR-4 ovarian
[41] = tested on: 786-0 renal
[42] = tested on: NCI-H226 lung

SMILES: Cc1cc(C(C)(C)CC(C)(C)C)ccc1OCCOCC[N+](C)(C)Cc1ccccc1
- GI50 [1]: 388 nM
- TGI [1]: 1810 nM
- GI50 [2]: 1440 nM
- TGI [2]: 2840 nM
- GI50 [3]: 15300 nM
- TGI [3]: 51000 nM
- GI50 [4]: 1330 nM
- TGI [4]: 2750 nM
- GI50 [5]: 2250 nM
- TGI [5]: 6650 nM
- GI50 [6]: 436 nM
- TGI [6]: 1620 nM
- GI50 [7]: 9800 nM
- TGI [7]: 44000 nM
- GI50 [8]: 1440 nM
- TGI [8]: 2780 nM
- GI50 [9]: 967 nM
- TGI [9]: 2210 nM
- GI50 [10]: 1250 nM
- TGI [10]: 2640 nM
- GI50 [11]: 1030 nM
- TGI [11]: 2460 nM
- GI50 [12]: 1860 nM
- TGI [12]: 5160 nM
- GI50 [13]: 10400 nM
- TGI [13]: 39000 nM
- GI50 [14]: 3190 nM
- TGI [14]: 11300 nM
- GI50 [15]: 1660 nM
- TGI [15]: 3130 nM
- GI50 [16]: 1550 nM
- TGI [16]: 4070 nM
- GI50 [17]: 1710 nM
- TGI [17]: 3450 nM

SMILES: COc1cc(/C=C/c2cc(/C=C/c3ccc(O)c(OC)c3)n(C(=O)Nc3ccc(C)cc3C)n2)ccc1O
- GI50 [18]: 430 nM
- TGI [18]: 3200 nM
- GI50 [2]: 442 nM
- TGI [2]: 1540 nM
- GI50 [3]: 335 nM
- TGI [3]: 2660 nM
- GI50 [4]: 613 nM
- TGI [4]: 6010 nM
- GI50 [19]: 327 nM
- TGI [19]: 1260 nM
- GI50 [5]: 362 nM
- TGI [5]: 1740 nM
- GI50 [20]: 232 nM
- TGI [20]: > 100000 nM
- GI50 [6]: 262 nM
- TGI [6]: 801 nM
- GI50 [21]: 738 nM
- TGI [21]: 4260 nM
- GI50 [22]: 292 nM
- TGI [22]: 1170 nM
- GI50 [8]: 347 nM
- TGI [8]: 1210 nM
- GI50 [23]: 538 nM
- TGI [23]: 1930 nM
- GI50 [24]: 44.5 nM
- GI50 [9]: 412 nM
- TGI [9]: 1650 nM
- GI50 [25]: 903 nM
- TGI [25]: 3590 nM
- GI50 [26]: 509 nM
- TGI [26]: 2460 nM
- GI50 [10]: 1900 nM
- TGI [10]: 3380 nM
- GI50 [27]: 262 nM
- TGI [27]: 775 nM
- GI50 [11]: 576 nM
- TGI [11]: 3710 nM
- GI50 [28]: 275 nM
- TGI [28]: 1250 nM
- GI50 [29]: 693 nM
- TGI [29]: 16800 nM
- GI50 [12]: 295 nM
- TGI [12]: > 100000 nM
- GI50 [30]: 401 nM
- TGI [30]: 1470 nM
- GI50 [31]: 1460 nM
- TGI [31]: 5250 nM
- GI50 [32]: 562 nM
- TGI [32]: 2360 nM
- GI50 [33]: 464 nM
- TGI [33]: 2760 nM
- GI50 [34]: 379 nM
- TGI [34]: 5010 nM
- GI50 [13]: 367 nM
- TGI [13]: 5090 nM
- GI50 [35]: 352 nM
- TGI [35]: 1740 nM
- GI50 [14]: 412 nM
- TGI [14]: 2110 nM
- GI50 [36]: 281 nM
- TGI [36]: 1220 nM
- GI50 [15]: 387 nM
- TGI [15]: 1500 nM
- GI50 [37]: 317 nM
- TGI [37]: 1370 nM
- GI50 [16]: 995 nM
- TGI [16]: 5760 nM
- GI50 [17]: 1510 nM
- TGI [17]: 6850 nM
- GI50 [38]: 327 nM
- TGI [38]: 1030 nM
- GI50 [39]: 529 nM
- TGI [39]: 2160 nM
- GI50 [40]: 464 nM
- TGI [40]: 2990 nM
- GI50 [41]: 549 nM
- TGI [41]: 1760 nM
- GI50 [42]: 389 nM
- TGI [42]: 2100 nM
